Measured values published in PubChem BioAssay (NCI).
Values joined by “and” are separate entries in the source; they are usually repeats but may differ in a detail not shown here. Equal values may be shown once.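 48-hour exposure; five concentrations; linearly interpolated endpoints. At the GI50, growth is halved. Definition used: TGI = concentration required for complete inhibition of growth.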

Assays:
Assay in all cases: DTP human tumour cell line panel, 48 h
[1] = test system: LOX IMVI melanoma
[2] = test system: COLO 205 colon
[3] = test system: HCT-15 colon
[4] = test system: SNB-19 CNS
[5] = test system: HOP-62 NSCLC
[6] = test system: OVCAR-3 ovarian
[7] = test system: NCI-H23 lung
[8] = test system: SNB-75 CNS
[9] = test system: SK-OV-3 ovarian
[10] = test system: UACC-62 melanoma

CC(C)(C)c1nc(-c2cccc(NS(=O)(=O)c3c(F)cccc3F)c2F)c(-c2ccnc(N)n2)s1
GI50 [1]: 0.233 µM
TGI [1]: > 100 µM
GI50 [2]: < 0.01 µM
TGI [2]: > 100 µM
GI50 [3]: 22.2 µM
TGI [3]: 81.1 µM
GI50 [4]: 71.5 µM
TGI [4]: > 100 µM
GI50 [5]: 47.2 µM
TGI [5]: > 100 µM
GI50 [6]: 35.6 µM
TGI [6]: > 100 µM
GI50 [7]: 10.3 µM
TGI [7]: 98.6 µM

COC(=O)N/N=C(\C)C(CN(C)C)C(c1ccccc1)c1c(O)c2ccccc2oc1=O (stereo not drawn)
TGI [1]: > 100 µM
TGI [2]: > 100 µM
TGI [3]: > 100 µM
TGI [4]: > 100 µM
TGI [5]: > 100 µM
TGI [8]: > 100 µM
TGI [9]: > 100 µM
TGI [7]: > 100 µM
TGI [10]: > 100 µM

CCc1nc2cc(/C=C/C(=O)NO)ccc2c(=O)n1CCc1ccc(OC)cc1
GI50 [1]: 1.68 µM
TGI [1]: 3.19 µM
GI50 [2]: 1.94 µM
TGI [2]: 5.13 µM
GI50 [3]: 3.24 µM
TGI [3]: > 100 µM
GI50 [4]: 3.21 µM
TGI [4]: 21.4 µM
GI50 [5]: 2.45 µM
TGI [5]: 7.68 µM
GI50 [8]: 2.62 µM
TGI [8]: 33.2 µM
GI50 [6]: 2.03 µM
TGI [6]: 7.19 µM
GI50 [9]: 2.42 µM
TGI [9]: 6.11 µM
GI50 [7]: 2.4 µM
TGI [7]: 7.89 µM
GI50 [10]: 1.59 µM
TGI [10]: 4.33 µM

COc1ccc2nc3cccc([N+](=O)[O-])c3c(NCCNCCN(C)C)c2c1
GI50 [1]: 0.0652 µM
TGI [1]: 0.305 µM
GI50 [2]: 0.0277 µM
TGI [2]: 0.0949 µM
GI50 [3]: 0.131 µM
GI50 [4]: 0.223 µM
TGI [4]: 1.17 µM
GI50 [5]: 0.183 µM
TGI [5]: 0.698 µM
GI50 [8]: 0.158 µM
TGI [8]: 0.386 µM
GI50 [6]: 0.0992 µM
TGI [6]: 0.308 µM
GI50 [9]: 0.279 µM
TGI [9]: 1.06 µM
GI50 [7]: 1.72 µM
TGI [7]: 5.26 µM
GI50 [10]: 0.121 µM
TGI [10]: 0.3 µM

CCOC(=O)C1=C(C(=O)OCC)C2(c3ccccc3)N(O1)c1ccccc1C2(C)C (stereo not drawn)
TGI [2]: > 100 µM
TGI [4]: > 100 µM
TGI [5]: > 100 µM
TGI [8]: 89.5 µM
TGI [6]: > 100 µM
TGI [9]: 95.2 µM
TGI [7]: > 100 µM
TGI [10]: > 100 µM

O=C(/C=C\n1cnc(-c2cc(C(F)(F)F)cc(C(F)(F)F)c2)n1)N1CC(F)(F)C1
GI50 [1]: 0.357 µM
TGI [1]: 3.45 µM
GI50 [2]: 0.351 µM
TGI [2]: 4.14 µM
GI50 [3]: 0.651 µM
TGI [3]: 4.86 µM
GI50 [4]: 0.273 µM
TGI [4]: > 25 µM
GI50 [5]: 0.57 µM
TGI [5]: 3.46 µM
GI50 [8]: 0.432 µM
TGI [8]: 6.44 µM
GI50 [6]: 0.332 µM
TGI [6]: 3.03 µM
GI50 [9]: 1.08 µM
TGI [9]: > 25 µM
GI50 [7]: 0.391 µM
TGI [7]: 5.61 µM
GI50 [10]: 1.17 µM
TGI [10]: 9.2 µM

Cc1c(C)c2c(c(C)c1OCC(=O)O)CC[C@@](C)(CCC[C@@H](C)CCC[C@@H](C)CCCC(C)C)O2
GI50 [1]: 78.7 µM
TGI [1]: 216 µM
GI50 [2]: 53.4 µM
TGI [2]: 144 µM
GI50 [3]: 40.8 µM
TGI [3]: 120 µM
GI50 [4]: 95.8 µM
TGI [4]: 196 µM
GI50 [5]: 62.2 µM
TGI [5]: 161 µM
GI50 [8]: 69.9 µM
TGI [8]: 141 µM
GI50 [6]: 77.3 µM
TGI [6]: 154 µM
GI50 [9]: 76.8 µM
TGI [9]: 148 µM
GI50 [7]: 75.7 µM
TGI [7]: 200 µM
GI50 [10]: 61.1 µM
TGI [10]: 126 µM

COc1cc(-c2cc3ncccc3c3[nH]c(=O)c4cccnc4c23)cc(OC)c1OC
GI50 [1]: 0.511 µM
TGI [1]: > 100 µM
GI50 [2]: 0.538 µM
TGI [2]: > 100 µM
GI50 [3]: 0.683 µM
TGI [3]: > 100 µM
GI50 [4]: 0.981 µM
TGI [4]: > 100 µM
GI50 [5]: 7.76 µM
TGI [5]: > 100 µM
GI50 [8]: 0.271 µM
TGI [8]: 62.9 µM
GI50 [6]: 0.329 µM
TGI [6]: > 100 µM
GI50 [9]: 1.35 µM
TGI [9]: > 100 µM
GI50 [7]: 2.3 µM
TGI [7]: > 100 µM
GI50 [10]: 0.496 µM
TGI [10]: 30.3 µM

O=c1[nH]c(=O)n(C2CC(O)C(CO)O2)cc1COCC(F)(F)F (stereo not drawn)
TGI [1]: > 100 µM
TGI [2]: > 100 µM
TGI [4]: > 100 µM
TGI [5]: > 100 µM
TGI [8]: > 100 µM
TGI [6]: > 100 µM
TGI [9]: > 100 µM
TGI [7]: > 100 µM
TGI [10]: > 100 µM

Nc1nc2c(ccc3ccccc32)s1
GI50 [1]: 78.2 µM
TGI [1]: > 100 µM
GI50 [2]: > 100 µM
TGI [2]: > 100 µM
GI50 [3]: > 100 µM
TGI [3]: > 100 µM
GI50 [4]: > 100 µM
TGI [4]: > 100 µM
GI50 [5]: > 100 µM
TGI [5]: > 100 µM
GI50 [8]: 36.8 µM
TGI [8]: > 100 µM
GI50 [6]: 43.4 µM
TGI [6]: > 100 µM
GI50 [7]: > 100 µM
TGI [7]: > 100 µM
GI50 [10]: 75.8 µM
TGI [10]: > 100 µM

C/C(CC(=O)Nc1ccc(NC(=O)C/C(C)=N\NC(N)=O)cc1)=N/NC(N)=O
TGI [1]: > 60.1 µM
TGI [2]: > 79.7 µM
TGI [3]: > 62.5 µM
TGI [4]: > 100 µM
TGI [5]: > 100 µM
TGI [8]: > 100 µM
TGI [6]: > 100 µM
TGI [9]: > 100 µM
TGI [7]: > 100 µM
TGI [10]: > 100 µM

Cc1cc2c(cc1CO)N1Cc3cc(C)c(CO)cc3N(C2)C1
TGI [1]: > 100 µM
TGI [2]: > 100 µM
TGI [4]: > 100 µM
TGI [5]: > 100 µM
TGI [8]: > 100 µM
TGI [6]: > 100 µM
TGI [9]: > 100 µM
TGI [7]: > 100 µM
TGI [10]: > 100 µM

Nc1ccccc1C(=O)NC(=O)Nc1ccc(Oc2ncc(Br)cn2)c(Cl)c1
TGI [1]: 24.1 µM
TGI [2]: 0.421 µM
TGI [3]: 22.6 µM
TGI [4]: 14.7 µM
TGI [5]: 4.03 µM
GI50 [8]: 0.0035 µM
TGI [9]: 3.2 µM
TGI [7]: 4.86 µM
GI50 [10]: 0.00797 µM
TGI [10]: 4.33 µM

COC(=O)CC(C(C(C)=O)C(=O)OCc1ccccc1)N1C(=O)OC(c2ccccc2)C1c1ccccc1 (stereo not drawn)
TGI [1]: > 100 µM
TGI [2]: > 100 µM
TGI [3]: > 100 µM
GI50 [4]: 10.5 µM and > 100 µM
TGI [4]: 91.7 µM and > 100 µM
TGI [5]: > 100 µM
TGI [6]: 75.3 µM and > 100 µM
TGI [9]: > 100 µM
TGI [7]: > 100 µM
TGI [10]: > 100 µM

N#C/C(=C\c1ccccc1)C(NO)Nc1ccccc1 (stereo not drawn)
TGI [2]: > 100 µM
TGI [3]: > 100 µM
TGI [4]: > 100 µM
TGI [5]: > 100 µM
TGI [8]: > 100 µM
TGI [6]: > 100 µM
TGI [9]: > 100 µM
TGI [7]: > 100 µM
TGI [10]: > 100 µM

c1ccc(C2CC(c3ccc4ccccc4c3)=Nc3ccccc3S2)cc1 (stereo not drawn)
TGI [1]: 29.5 µM
TGI [4]: 36.7 µM
TGI [5]: 38.2 µM
TGI [8]: 40.4 µM
TGI [6]: 38.7 µM
TGI [9]: 80.9 µM
TGI [7]: 28.9 µM
TGI [10]: 35.2 µM
